Patent US12421232B2, “Kinase inhibitor compounds and compositions and methods of use” (ICAHN SCHOOL OF MEDICINE AT MOUNT SINAI, priority 2018, dated 2025)
Changes are numbered by the printed parent chain. Read-outs that look alike come from different tables or passages of the source. Marks after values point to notes of the source that are not given here.

Key:
Experiment in all cases: KINOMEscan Assay (DiscoverX)
Format in all cases: binding
[1] = target: T1, TYK2(JH1domain-catalytic) (Homo sapiens, UniProt P29597); settings: read-out: % DMSO Ctrl
T1 construct: JH1domain; purchased DiscoverX
T1 sequence (P29597 897-1176 limits assumed): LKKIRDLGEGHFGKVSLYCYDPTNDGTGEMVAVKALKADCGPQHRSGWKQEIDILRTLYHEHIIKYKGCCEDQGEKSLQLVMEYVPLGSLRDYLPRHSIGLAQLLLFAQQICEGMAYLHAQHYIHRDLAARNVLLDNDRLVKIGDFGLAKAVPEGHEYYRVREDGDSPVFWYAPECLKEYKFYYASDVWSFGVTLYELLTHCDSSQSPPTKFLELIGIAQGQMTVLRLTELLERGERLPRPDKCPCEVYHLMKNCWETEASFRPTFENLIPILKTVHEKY

FLT3(K663Q) = target: T2, FLT3(K663Q) (Homo sapiens, UniProt P36888, K663Q); settings: read-out: % DMSO Ctrl
T2 construct: purchased DiscoverX
T2 sequence (P36888 27-993 K663Q): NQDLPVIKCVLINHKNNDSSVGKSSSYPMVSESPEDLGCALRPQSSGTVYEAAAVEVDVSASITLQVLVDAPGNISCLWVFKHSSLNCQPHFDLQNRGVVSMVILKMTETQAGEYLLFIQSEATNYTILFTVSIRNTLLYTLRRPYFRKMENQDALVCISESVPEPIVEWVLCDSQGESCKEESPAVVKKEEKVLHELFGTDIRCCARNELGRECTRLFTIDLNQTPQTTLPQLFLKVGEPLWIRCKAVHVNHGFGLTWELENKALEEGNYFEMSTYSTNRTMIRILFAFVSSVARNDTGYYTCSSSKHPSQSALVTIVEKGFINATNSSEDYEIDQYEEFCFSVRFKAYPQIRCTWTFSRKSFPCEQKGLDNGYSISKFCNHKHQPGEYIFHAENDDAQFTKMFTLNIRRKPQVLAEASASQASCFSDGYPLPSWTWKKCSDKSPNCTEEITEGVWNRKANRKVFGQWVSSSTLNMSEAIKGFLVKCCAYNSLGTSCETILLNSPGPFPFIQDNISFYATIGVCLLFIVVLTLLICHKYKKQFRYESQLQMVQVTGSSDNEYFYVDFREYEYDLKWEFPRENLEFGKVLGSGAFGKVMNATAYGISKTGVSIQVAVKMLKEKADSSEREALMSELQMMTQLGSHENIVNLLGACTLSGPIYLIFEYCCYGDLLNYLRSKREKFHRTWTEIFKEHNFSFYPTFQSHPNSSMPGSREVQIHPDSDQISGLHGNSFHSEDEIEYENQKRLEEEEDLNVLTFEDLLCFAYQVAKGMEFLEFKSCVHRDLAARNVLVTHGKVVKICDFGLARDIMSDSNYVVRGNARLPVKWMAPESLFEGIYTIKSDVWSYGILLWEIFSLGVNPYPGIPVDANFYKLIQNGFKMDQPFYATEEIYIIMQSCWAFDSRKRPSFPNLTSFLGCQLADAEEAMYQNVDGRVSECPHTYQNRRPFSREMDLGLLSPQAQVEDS

KIT(V559D) = target: T3, KIT(V559D) (Homo sapiens, UniProt P10721, V559D); settings: read-out: % DMSO Ctrl
T3 construct: purchased DiscoverX

FLT3(D835V) = target: T4, FLT3(D835V) (Homo sapiens, UniProt P36888, D835V); settings: read-out: % DMSO Ctrl
T4 construct: purchased DiscoverX
T4 sequence (P36888 27-993 D835V): T2 sequence (P36888 27-993 K663Q) with Q637K, D809V

CAMK2B = target: T5, CAMK2B (Homo sapiens, UniProt Q13554); settings: read-out: % DMSO Ctrl
T5 construct: purchased DiscoverX

FLT3(ITD,D835V) = FLT3(ITD,D835V) mutant; 10 μM
PIM1 = target: T6, PIM1 (Homo sapiens, UniProt P11309); settings: read-out: % DMSO Ctrl
T6 construct: purchased DiscoverX
T6 sequence (P11309 whole entry): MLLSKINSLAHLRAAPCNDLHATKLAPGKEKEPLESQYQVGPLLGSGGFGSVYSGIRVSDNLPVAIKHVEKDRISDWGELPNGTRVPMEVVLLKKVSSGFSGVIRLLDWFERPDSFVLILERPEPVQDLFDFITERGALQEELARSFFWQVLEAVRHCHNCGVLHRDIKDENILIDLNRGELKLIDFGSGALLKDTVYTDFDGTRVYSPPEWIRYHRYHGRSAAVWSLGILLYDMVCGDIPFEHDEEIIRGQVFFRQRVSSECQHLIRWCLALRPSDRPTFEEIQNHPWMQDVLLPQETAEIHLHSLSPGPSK

T5 sequence (Q13554 whole entry): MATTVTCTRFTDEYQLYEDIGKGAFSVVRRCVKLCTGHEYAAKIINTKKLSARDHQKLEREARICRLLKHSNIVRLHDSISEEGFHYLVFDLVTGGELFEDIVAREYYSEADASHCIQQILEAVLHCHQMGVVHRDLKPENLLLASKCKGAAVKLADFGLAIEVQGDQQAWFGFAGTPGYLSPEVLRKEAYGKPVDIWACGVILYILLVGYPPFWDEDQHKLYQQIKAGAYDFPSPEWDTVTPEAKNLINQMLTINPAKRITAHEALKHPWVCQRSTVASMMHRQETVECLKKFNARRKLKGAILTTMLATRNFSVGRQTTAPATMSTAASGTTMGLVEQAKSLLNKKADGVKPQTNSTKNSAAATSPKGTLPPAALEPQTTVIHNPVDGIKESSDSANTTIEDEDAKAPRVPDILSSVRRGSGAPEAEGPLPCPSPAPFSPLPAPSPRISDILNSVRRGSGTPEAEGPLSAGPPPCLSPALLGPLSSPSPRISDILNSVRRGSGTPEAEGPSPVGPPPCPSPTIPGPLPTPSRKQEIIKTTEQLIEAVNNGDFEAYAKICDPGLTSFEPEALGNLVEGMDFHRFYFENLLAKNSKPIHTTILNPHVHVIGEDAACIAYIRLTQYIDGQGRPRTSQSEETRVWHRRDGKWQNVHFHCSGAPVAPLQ
T3 sequence (P10721 26-976 V559D): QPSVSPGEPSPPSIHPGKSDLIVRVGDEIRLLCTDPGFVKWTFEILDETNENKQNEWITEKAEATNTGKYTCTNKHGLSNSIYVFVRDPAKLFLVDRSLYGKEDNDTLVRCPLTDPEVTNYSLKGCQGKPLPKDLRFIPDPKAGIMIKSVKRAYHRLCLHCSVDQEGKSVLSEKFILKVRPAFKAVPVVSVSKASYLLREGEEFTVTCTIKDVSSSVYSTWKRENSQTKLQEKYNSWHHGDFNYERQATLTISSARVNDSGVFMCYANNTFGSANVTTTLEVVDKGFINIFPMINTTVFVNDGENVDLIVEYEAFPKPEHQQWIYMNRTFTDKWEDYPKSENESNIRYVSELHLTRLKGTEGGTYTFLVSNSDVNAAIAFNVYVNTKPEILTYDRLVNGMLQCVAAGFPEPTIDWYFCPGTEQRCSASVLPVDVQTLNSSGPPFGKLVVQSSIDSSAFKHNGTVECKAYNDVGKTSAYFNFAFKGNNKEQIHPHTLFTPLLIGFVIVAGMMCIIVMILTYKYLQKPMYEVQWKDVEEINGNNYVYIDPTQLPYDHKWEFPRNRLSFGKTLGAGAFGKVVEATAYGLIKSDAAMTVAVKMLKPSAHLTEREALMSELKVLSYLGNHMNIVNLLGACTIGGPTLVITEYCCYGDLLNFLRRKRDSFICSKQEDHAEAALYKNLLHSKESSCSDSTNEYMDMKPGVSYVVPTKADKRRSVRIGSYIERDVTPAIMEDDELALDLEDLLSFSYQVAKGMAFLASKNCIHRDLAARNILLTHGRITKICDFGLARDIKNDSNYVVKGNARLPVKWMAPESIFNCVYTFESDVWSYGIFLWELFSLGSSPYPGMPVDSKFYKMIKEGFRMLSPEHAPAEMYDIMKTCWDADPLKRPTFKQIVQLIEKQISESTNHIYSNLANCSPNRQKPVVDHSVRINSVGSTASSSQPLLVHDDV

## COc1ccc2c(c1)[nH]c1c(C)nc(CO)cc12 [Compound 2-8, (1-Methyl-7-methoxy-9H-pyrido[3,4-b]indol-3-yl)methanol]
[1]; TYK2(JH1domain-catalytic), 10 μM
  remaining binding at 10 µM: 64%
FLT3(K663Q); FLT3(K663Q) mutant, 10 μM
  remaining binding at 10 µM: 100%
KIT(V559D); KIT(V559D) mutant, 10 μM
  remaining binding at 10 µM: 82%
FLT3(D835V); FLT3(D835V) mutant, 10 μM
  remaining binding at 10 µM: 42%
CAMK2B; CAMK2B, 10 μM
  remaining binding at 10 µM: 42%
FLT3(ITD,D835V)
  % DMSO Ctrl: 37 % DMSO Ctrl

## COc1ccc2c3ccnc(C)c3n(CCCc3noc(N)n3)c2c1 [Compound 20-13, 3-(3-(7-Methoxy-1-methyl-β-carbolin-9-yl)propyl)-5-amino-1,2,4-oxadiazole]
[1]
  remaining binding at 10 µM: 17%
PIM1
  remaining binding at 10 µM: 28%
FLT3(K663Q)
  remaining binding at 10 µM: 98%
KIT(V559D)
  remaining binding at 10 µM: 100%
FLT3(D835V)
  remaining binding at 10 µM: 2.6%
CAMK2B
  remaining binding at 10 µM: 69%
FLT3(ITD,D835V)
  % DMSO Ctrl: 11 ^c % DMSO Ctrl

## C#CCn1c2cc(OC)ccc2c2ccnc(C)c21 [Compound 20-23a, 3-(7-Methoxy-1-methyl-β-carbolin-9-yl)-propan-1-yne]
[1]
  remaining binding at 10 µM: 91%
PIM1; PIM1, 10 μM
  remaining binding at 10 µM: 26%
FLT3(K663Q)
  remaining binding at 10 µM: 93%
KIT(V559D)
  remaining binding at 10 µM: 90%
FLT3(D835V); FLT3(D835V) mutant, 10 μM
  remaining binding at 10 µM: 2.5%
CAMK2B
  remaining binding at 10 µM: 3%
FLT3(ITD,D835V)
  % DMSO Ctrl: 11 ^c % DMSO Ctrl

## COc1ccc2c(c1)[nH]c1c(C)nccc12 [Harmine, reference compound]
PIM1
  remaining binding at 10 µM: 45%
FLT3(D835V)
  remaining binding at 10 µM: 25%
